Assay results: patent US20240309059A1, “PEPTIDE HAVING ANTI-VIRAL ACTIVITY, ANTI-VIRAL AGENT COMPRISING SAID PEPTIDE, AND METHOD FOR PRODUCING SAID ANTI-VIRAL AGENT” (National University Corporation Tokyo Medical and Dental …, priority 2021, published 2024)
Ends that are not written are not given here.

How the values were obtained:
[1] = tested on: SARS-COV-2 Brazilian variant (P.1)
[2] = tested on: SARS-COV-2 UK variant (B.1.1.7)
[3] = target: receptor binding domain (RBD) in the SARS-COV-2 South African variant (B.1.351) (Severe acute respiratory syndrome coronavirus 2, UniProt P0DTC2, E484K/K417N/N501Y)
[4] = target: receptor binding domain (RBD) in the SARS-COV-2 Indian variant (κ type (B.1.617.1)) (Severe acute respiratory syndrome coronavirus 2, UniProt P0DTC2, E484Q/L452R)
[5] = target: receptor binding domain (RBD) in the SARS-COV-2 Brazilian variant (P.1) (Severe acute respiratory syndrome coronavirus 2, UniProt P0DTC2, E484K/K417T/N501Y)
[6] = target: receptor binding domain (RBD) in the SARS-COV-2 Omicron (sublineage BA.1) variant (B.1.1.529/BA.1) (Severe acute respiratory syndrome coronavirus 2, UniProt P0DTC2, E484A/G339D/G446S/G496S/K417N/N440K/N501Y/Q493R/Q498R/S371L/S373P/S375F/S477N/T478K/Y505H)
[7] = target: receptor binding domain (RBD) in the SARS-COV-2 Indian variant (δ type (B.1.617.2)) (Severe acute respiratory syndrome coronavirus 2, UniProt P0DTC2, L452R/T478K)
[8] = target: receptor binding domain (RBD) in the SARS-COV-2 UK variant (B.1.1.7) (Severe acute respiratory syndrome coronavirus 2, UniProt P0DTC2, N501Y)
[9] = tested on: SARS-COV-2 Indian variant (δ type) (B.1.617.2)
[10] = tested on: SARS-COV-2 Omicron (sublineage BA.1) variant (B.1.1.529/BA.1)

Sequence | IC50 [2] [nM] | IC50 [9] [nM] | IC50 [10] [nM] | also measured
DKEWILQKIYEIMRRLDEEGHAEASMRVSDLIYEFMKKD [Ce9] | 13 |  |  | IC50 [1]: 1200 nM
DKEWILQKIYEIMRRLDEEGHGEASLRVSDLIYEFMKKD [Ce41] | 0.68 |  |  | binding activity to the receptor binding domain (RBD) [3]: high binding activity; binding activity to the receptor binding domain (RBD) [4]: high binding activity; binding activity to the receptor binding domain (RBD) [5]: high binding activity; binding activity to the receptor binding domain (RBD) [6]: cannot maintain binding; binding activity to the receptor binding domain (RBD) [7]: high binding activity; binding activity to the receptor binding domain (RBD) [8]: high binding activity; dissociation from the RBD once bound [8]: does not dissociate at all
DKEWILQKIYEIMRRLDEEGHGEASLRVSDLIYEFMKRD [Ce59] |  | 16 |  | 
DKEWILYKIYEIMVRLDEEGHGEASLMVSDLIYEFMKRD [Ce149] | 0.0021 | 0.15 | 1 | 
DKLWILQKIYEIMVRLDEEGHGEASLMVSDLIYEFMKRD [Ce172] | 0.0022 | 0.53 | 0.038 | 
